Assays:
[1] = molecular target: T1, Adenosine receptor A1 (Cavia porcellus) (UniProt P47745); experiment: Positive chronotropic effect on isolated guinea pig right atrium (heart stimulation).; format: functional, tissue-based; settings: Cardiac atrium
T1 sequence (whole entry): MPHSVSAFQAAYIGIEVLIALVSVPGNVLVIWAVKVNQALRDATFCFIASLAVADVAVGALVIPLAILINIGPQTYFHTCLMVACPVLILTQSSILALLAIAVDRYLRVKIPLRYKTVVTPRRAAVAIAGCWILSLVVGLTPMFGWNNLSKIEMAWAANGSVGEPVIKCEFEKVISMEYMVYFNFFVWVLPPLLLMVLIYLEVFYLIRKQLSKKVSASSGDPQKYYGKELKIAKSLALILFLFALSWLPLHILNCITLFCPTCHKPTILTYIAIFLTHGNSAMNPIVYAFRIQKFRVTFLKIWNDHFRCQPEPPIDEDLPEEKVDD

[2] = Ratio of stimulatory activity in right atrium to relaxant activity in tracheal muscle; format: functional, Cardiac atrium
[3] = molecular target: T2, Adenosine receptor A1 (Cavia porcellus, UniProt P47745); experiment: Affinity against adenosine A1 receptor in the brain membranes by the displacement of [3H]CPX.; format: cell membranes, Membrane
T2 sequence (P47745 whole entry): T1 sequence (whole entry)

[4] = Inhibitory activity against c-AMP phosphodiesterase in guinea pig tracheal muscle.
[5] = Inhibition of c-AMP phosphodiesterase activity in guinea pig tracheal muscle
[6] = molecular target: Adenosine receptor A2a (Cavia porcellus, UniProt P46616); experiment: Affinity against adenosine A2 receptor in the brain membranes measured by the displacement of [3H]-CPX; format: cell membranes, Membrane
[7] = system: Cavia porcellus; experiment: In vivo positive chronotropic effect on isolated guinea pig right atrium; format: functional, Cardiac atrium
[8] = system: Cavia porcellus; experiment: In vivo reduction of acetylcholine-induced bronchospasm in guinea pigs by intraduodenal dose; format: functional
[9] = molecular target: Adenosine A2 receptor (Homo sapiens, UniProt P29275+P29274); experiment: Affinity against adenosine A2 receptor in brain membranes by displacement of [3H]CPX; format: cell membranes, Cavia porcellus, Membrane

Chain of Adenosine receptor A2a (P46616 whole entry): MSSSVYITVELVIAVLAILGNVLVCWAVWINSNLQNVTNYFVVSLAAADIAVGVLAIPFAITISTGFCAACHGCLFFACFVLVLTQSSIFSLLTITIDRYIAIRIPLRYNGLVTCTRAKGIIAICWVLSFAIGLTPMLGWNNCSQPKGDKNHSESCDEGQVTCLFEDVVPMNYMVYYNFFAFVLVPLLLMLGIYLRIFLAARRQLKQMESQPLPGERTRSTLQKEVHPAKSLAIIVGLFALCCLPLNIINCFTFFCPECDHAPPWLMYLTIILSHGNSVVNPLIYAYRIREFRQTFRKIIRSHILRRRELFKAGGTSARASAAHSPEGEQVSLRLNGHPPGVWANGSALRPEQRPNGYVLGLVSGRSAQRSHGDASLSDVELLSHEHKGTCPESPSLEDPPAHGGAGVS

EC15 [1]	Ki [3]	Ki [6]	SMILES	Broncho selectivity [2]	further results
> 100 µM			O=c1[nH]c(=O)c2nc[nH]c2[nH]1		
30 µM	11.8 µM		CCCn1c(=O)n(CC)c(=O)c2c1ncn2C	4	Ki [4]: 19.4 µM
36.2 µM			CCCn1c(=O)c2nc[nH]c2n(C)c1=O	3.7	Ki [5]: 26 µM
> 100 µM	117 µM		CCn1c(=O)[nH]c(=O)c2[nH]cnc21		
45.2 µM	9.4 µM	43.8 µM	CCCn1cnc2c1c(=O)n(C)c(=O)n2CCC	9	Ki [5]: 30.8 µM
> 100 µM			Cn1c(=O)[nH]c2[nH]cnc2c1=O [1-METHYLXANTHINE]	1.3	Ki [5]: 163 µM
34 µM	9.8 µM		CCn1c(=O)c2nc[nH]c2n(C)c1=O		
> 100 µM	12.1 µM		CCCCn1cnc2c1c(=O)[nH]c(=O)n2CCC	7.1	Ki [5]: 36.5 µM
17 µM	21.4 µM		CCCCn1c(=O)[nH]c(=O)c2[nH]cnc21	2.1	Ki [5]: 32 µM
	3.4 µM		CCCn1c(=O)c2[nH]cnc2n(C)c1=O		
	> 200 µM		O=c1[nH]c(=O)c2[nH]cnc2[nH]1 [XANTHINE]		
2.2 µM	1.9 µM	4.8 µM	CCCCn1c(=O)n(C)c(=O)c2[nH]cnc21	1.7	Ki [4]: 10.2 µM
18.3 µM			CCCn1c(=O)[nH]c(=O)c2nc[nH]c21 [ENPROFYLLINE]		ED15 [7]: 95.1 mg kg-1 i.d.; ED50 [8]: 25.7 mg/kg
29 µM			CCCCn1c(=O)c2nc[nH]c2n(CCC)c1=O		ED15 [7]: >100 mg kg-1 i.d.; ED50 [8]: 2.87 mg/kg
28.5 µM	7.6 µM	25.4 µM	CCn1c(=O)n(C)c(=O)c2[nH]cnc21		
90.5 µM	4.3 µM		CCCCn1c(=O)c2nc[nH]c2n(C)c1=O		
45.4 µM	14.5 µM	20.1 µM	CCCn1c(=O)n(C)c(=O)c2c1ncn2C		
	0.02 µM	4.1 µM	CCCCn1c(=O)c2[nH]cnc2n(CCC)c1=O		

EC15 [1]	Ki [3]	Ki [6]	SMILES	Broncho selectivity [2]	further results
> 100 µM	90.6 µM		CCCn1c(=O)[nH]c(=O)c2c1ncn2C		
6.1 µM	1.4 µM	3.9 µM	CCCn1c(=O)n(CC)c(=O)c2[nH]cnc21	4.7	Ki [5]: 24.1 µM
3.3 µM	1.9 µM	8 µM	CCCn1c(=O)n(C)c(=O)c2[nH]cnc21	2.1	Ki [5]: 10.6 µM
> 100 µM	40.4 µM		CCCn1c(=O)[nH]c(=O)c2c1ncn2CC	12	Ki [4]: 13.2 µM
	3.3 µM	23.4 µM	CCCn1c(=O)[nH]c2nc[nH]c2c1=O		
> 100 µM			CCCn1c(=O)[nH]c2[nH]cnc2c1=O		
			Cn1c(=O)c2nc[nH]c2n(C)c1=O.O [THEOPHYLLINE]		ED15 [7]: 20.2 mg kg-1 i.d.; ED50 [8]: 23.4 mg/kg
> 100 µM	7.3 µM	15.3 µM	CCCCn1cnc2c1c(=O)n(C)c(=O)n2CCC	32.3	Ki [5]: > 200 µM
> 100 µM	14.2 µM		CCCn1c(=O)n(C)c(=O)c2c1ncn2CC		
	11.5 µM	67.1 µM	Cn1c(=O)[nH]c2nc[nH]c2c1=O [1-METHYLXANTHINE]		
	9.8 µM	34 µM	CCn1c(=O)[nH]c2nc[nH]c2c1=O		
20 µM	0.2 µM		CCCn1c(=O)c2nc[nH]c2n(CCC)c1=O		
> 100 µM	6 µM		CCCCn1c(=O)c2c(ncn2C)n(CCC)c1=O	71.4	ED15 [7]: >100 mg kg-1 i.d.; ED50 [8]: 2.34 mg/kg; Ki [4]: 30.1 µM
45.8 µM	7.7 µM		CCCn1c(=O)c2c(ncn2C)n(CCC)c1=O		
> 100 µM			CCn1c(=O)[nH]c2[nH]cnc2c1=O		
> 100 µM	18.2 µM		CCCn1cnc2c1c(=O)[nH]c(=O)n2CCC	>6.3	Ki [5]: 35 µM
> 100 µM			CCCCn1c(=O)[nH]c2[nH]cnc2c1=O		
	3 µM	15.4 µM	CCCCn1c(=O)[nH]c2nc[nH]c2c1=O		

SMILES	EC15 [1]	Ki [3]	Ki [6]	Broncho selectivity [2]	further results
Cn1c(=O)c2[nH]cnc2n(C)c1=O	62 µM				
Cn1c(=O)[nH]c(=O)c2[nH]cnc21 [3-METHYLXANTHINE]	> 100 µM				Ki [9]: 133 µM
